The source of these data is patent US20110166428A1, “NOVEL METHOD FOR MEASURING INSULIN RESISTANCE” (UNIVERSITE JOSEPH FOURIER, priority 2008, published 2011).

Series [1] is described as follows: Scintigraphy of 123I-6DIG in the dog: thoracic and blood activity, fasting or under GIK. Type of series: in vivo. As to conditions: for slope of cardiac activity measured between 2 and 5 minutes: dog heart, FIG. 8. The method, then: This graph represents on the y-axis the variations in […], for one pixel and in the quantity (in mCi) of 6DIG injected, in relation to the x-axis which represents the data acquisition time in minutes, in the heart of a dog. The measured activity is related to the number of pixels, since when a region of interest is determined on a scintigraphy image, the number of pixels in the manually selected zone is not always the same.
Two series of data are shown; a first series of measurements indicated by linked squares represents the data recorded for a fasting animal. A second series of data, indicated by linked circles, represents the data recorded for an animal perfused with a GIK solution (Glucose/Insulin/potassium).
Animals: male beagle dogs aged about 1 year, weighing between 15 and 20 kg and fed with a standard diet Jape 21 (Ets L. Pietrement).
The dogs, premedicated with an intramuscular injection of ketamine (10 mg/kg), are anaesthetised by means of an intravenous injection of sodium thiopental (25 mg/kg). The animals are intubated and ventilated throughout the experiment and kept asleep with halothane in the ventilation circuit (oxygen-enriched air).
6DIG (20 μmol) labelled with iodine 123 (about 4 mCi) is injected intravenously. The scintigraphy images are acquired by means of a standard gamma camera equipped with a high resolution collimator and the […] is set at 160 keV with a 20% window. The variation in the thoracic radioactivity (heart, lungs and liver) with time is measured for 30 minutes post-injection, at the rate of one image per minute. The change in the blood activity is obtained by taking blood samples (1, 2, 3, 4, 5, 10. 15, 20 and 30 min p.i.) and the measurement of the radioactivity by means of a gamma counter (Packard).
Two protocols were followed, the first was implemented in fasting animals (withdrawal of food the night before the experiment, n=1) and the second was implemented in animals perfused with a GIK (Glucose/Insulin/Potassium) solution containing in particular insulin (30% glucose, 4 g/l of KCl and 80 IU/kg of insulin, n=2) and maintained throughout the experiment.

Series [2] deals with Zucker rats (insulin resistant). The series can be described thus: Sensitivity of the empirical index of glucose transport into the skeletal muscle, Rosiglitazone vs placebo. Type of series: in vivo, rat. The conditions noted are these: three weeks after treatment. The source says: (§1) This graph represents the mean obtained during calculations of the empirical descriptor in the skeletal muscle, in the Zucker rat, with or without treatment with Rosiglitazone or with a placebo. The values of the descriptor are shown on the y-axis. The x-axis comprises 4 columns: the two on the left and the two on the right; the two on the left relate to the values observed for the rats at the start of observation before any injection, and the two on the right relate to the rats 21 days after injection. The white columns indicate rats having undergone an injection of Rosiglitazone, the black columns indicate rats having undergone an injection of a placebo.
The rat receives a first bolus of 6-DIG labelled with iodine 123 (about 250 μCi, this activity being counted in a Capintec CRC15R ionisation chamber supplied by Aries, France) in the basal condition. The activity of the 6-DIG is monitored with the gamma camera (field of view 10 cm, intrinsic resolution 1.8 mm, Biospace, France), or with the NaI probe (Scintibloc from Crismatec (Nemours, France) and ScintiSPEC, Aries) in skeletal muscle cells (quadriceps of hind paw) for 20 minutes. During these 20 minutes, the radioactivity is counted in “LIST” mode (TD. Cradduck, Computers in Nuclear Medicine, Vol. 5; No. 1, 1985, Radiographics) and analysed a posteriori […]

For series [3] the test system is unchanged. The series can be described thus: Sensitivity of the theoretical index k(2,1) insulin/basal of glucose transport into the heart, Rosiglitazone vs placebo. Type of series: in vivo, rat. As to conditions: seven days after treatment, p<0.05, FIG. 18.
Text: as §1, with “theoretical index” for “empirical descriptor”, “heart,” for “skeletal muscle,”, “index” for “descriptor”, “7” for “21”
The model utilised is a three-compartment mammillary model, derived from that used to measure the kinetic parameters of transport of 3OMG, the reference tracer for glucose transport (Cobelli, 1989; Am. J. Physiol., 257, E444-E450). It makes it possible to study the biological behaviour of the tracer after injection in the rat in vivo (Slimani L. et al., CR Biol, 2002, 325(4), 529-546). The central compartment (s1) represents the plasma. […] The radioactivity measured at the level of compartments 1 and 2 is designated respectively as q1 and q2. […]
The index characterizing the rate of glucose transport into the heart was measured twice, 7 days apart, on the same animal, treated with Rosiglitazone or a placebo. […]

Series [4] shares this test system. Nature of the series: Sensitivity of the empirical index of glucose transport into the heart, Rosiglitazone vs placebo. Type of series: in vivo, rat. As to conditions: three weeks after treatment. The source says:
This graph represents the mean obtained during the calculations of empirical descriptor in the heart, in the Zucker rat, with or without treatment with Rosiglitazone or with a placebo. The values of the descriptor are shown on the y-axis. The x-axis comprises 4 columns: the two on the left and the two on the right; the two on the left relate to the values observed for the rats at the start of observation before any injection, and the two on the right relate to the rats 21 days after injection. The white columns indicate rats having undergone an injection of Rosiglitazone, the black columns indicate rats having undergone an injection of a placebo.
The rat receives a first bolus of 6-DIG labelled with iodine 123 (about 250 μCi, this activity being counted in a Capintec CRC15R ionisation chamber supplied by Aries, France) in the basal condition. The activity of the 6-DIG is monitored with the gamma camera (field of view 10 cm, intrinsic resolution 1.8 mm, Biospace, France) in cardiac cells for 20 minutes. During these 20 minutes, the radioactivity is counted in “LIST” mode and analysed a posteriori.
The rat then receives an injection of insulin (2.5 IU/kg), performed 5 minutes before a second injection of the tracer (about 250 μCi). The activity of the 6-DIG is again monitored with the gamma camera in cardiac cells for 20 minutes. […]

Structures are written as SMILES. Values joined by “and” are separate entries in the source; they are usually repeats but may differ in a detail not shown here. Equal values may be shown once.

Take `O=C[C@H](O)[C@@H](O)[C@H](O)[C@H](O)CI` [6DIG, 6-Deoxy-6-Iodo-D-Glucose]: the “slope of cardiac activity measured between 2 and 5 minutes” value in series [1] (fasting) was 0.013; in series [1] (under GIK perfusion), 0.044 and 0.022. Also, in series [1] (dog, i.v., blood samples, gamma counter), the blood activity result is recorded as “decreases very rapidly”. Moreover, the pulmonary activity result in series [1] (dog, i.v., gamma camera) is “low and comparable to the background noise”. Moreover, the “activity in the liver” value in series [1] (dog, i.v., gamma camera, 30 minutes post-injection) is “greatest in the liver at 5 minutes but decreases rapidly”.

Regarding `CN(CCOc1ccc(CC2SC(=O)NC2=O)cc1)c1ccccn1` (racemic) [Rosiglitazone, (±)-5-[[4-[2-(methyl-2-pyridinylamino)ethoxy]phenyl]methyl]-2,4-thiazolidinedione], the “empirical descriptor (empirical index of rate of glucose transport into the skeletal muscle) vs rats treated with placebo” value in series [2] (p=0.005, FIG. 16) was “significantly greater”. The “empirical descriptor (empirical index of rate of glucose transport into the skeletal muscle) vs same rats before treatment” value in series [2] (p=0.021, FIG. 16) is on record as “significantly greater”. Besides, the “index characterizing the rate of glucose transport into the heart (theoretical index) vs rats treated with placebo” value in series [3] was “significantly greater”. In series [4] (p=0.006, FIG. 12), the “empirical descriptor (empirical index of rate of glucose transport into the heart) vs rats treated with placebo” value was “significantly greater”. Also, in series [4] (p=0.033, FIG. 12), the “empirical descriptor (empirical index of rate of glucose transport into the heart) vs same rats before treatment” value is given as “significantly greater”.
